From EP0497921B1, “METHOD FOR INHIBITING ENZYMATIC SYNTHESIS OF NUCLEIC ACIDS USING ISOPSORALENS” (ISAACS, Stephen T., priority 1989, dated 1991)

Key:
HIV 115-mer = assay: Post-amplification sterilization: isopsoralen plus irradiation, reamplification of carryover; assay type: biochemical; settings: for sterilization sensitivity (molecules of carryover sterilized): 115-mer PCR product; for amplification of carryover, not light-treated: no irradiation
Description: For the purposes of this determination, the steps of the following experiment include (see Figure 40): a) preparing template, b) providing template, c) providing PCR reagents, d) providing polymerase, e) mixing PCR reagents, template, and polymerase to initiate PCR, f) cycling to provide PCR product, g) carrying over of PCR product into new tubes, h) providing isopsoralen, i) adding isopsoralen to the carryover, j) irradiating, k) addition of new PCR reagents, and l) subsequent PCR. Steps a), b) , c) , d), e), and f). PCR product was provided as described earlier. Step g) carrying over of PCR product. Aliquots of PCR product were added into new reaction tubes at 10^6 copies per tube. Step h) Providing Isopsoralen. AMDMIP was synthesized as described and diluted. Step i) Addition of Isopsoralen. AMDMIP (100 µg/ml, approximately 10^-4 M) was added reaction vessels containing carryover. Step j) Irradiation. Irradiation was performed on the PTI device to avoid photoproduct. Three of the new reaction tubes were irradiated while the others were left unirradiated as controls. Irradiation was for 15 minutes at RT as above. Step k) PCR Reagents and Taq Polymerase Were Added to Appropriate Concentrations. The final volume was increased two fold such that AMDMIP photoproducts were at 50 µg/ml. Step l) Subsequent PCR. Amplification was performed in closed reaction vessels using primer pair SK-38/39 for 20, 25 or 30 cycles, using the temperature profile for cycling described above in the presence of α-^32P-dCTP.
For the purposes of this determination, the steps of the following experiment include (see Figure 42): a) preparing template, b) providing template, c) providing isopsoralen, d) providing PCR reagents, e) providing polymerase, f) mixing isopsoralen, PCR reagents, template, and polymerase to initiate PCR, g) cycling to provide PCR product, h) irradiating, i) carrying over of PCR product into new tubes at specific copy numbers, and j) amplifying in a subsequent PCR. Step a): Template preparation. HIV 115-mer was used as template. Step b) Providing Template. For the reaction, template (equivalent to approximately 10^7 copies) in buffer was provided for the reaction vessel. Step c) Providing Isopsoralen. AMDMIP (400 µg/ml) was provided as the isopsoralen. This is a higher concentration of AMDMIP than used in the previous example. Steps d), e), f) and g). PCR reagents and polymerase were provided, mixed and cycled as described above. This time, however, isopsoralen is part of the pre-amplification mixture. Step h) Irradiation. Irradiation was performed on the CE-III device for 15 minutes at 25°C. Step i) Carrying over of PCR product. Aliquots of PCR product were added into six new reaction tubes - two tubes for each dilution. Dilutions to yield 10^7, 10^5 and 10^3 copies were made. (Note that the dilutions were made from a concentration of approximately […]; thus, the dilutions produce a concentration of photoproduct that is far too low to consider photoproduct sterilization.) Step j) Subsequent PCR. New PCR reagents and polymerase were provided and mixed. Amplification was performed in closed reaction vessels using primer pair SK-38/39 for 30 cycles, using the temperature profile for cycling described above in the presence of α-^32P-dCTP.
The two PCR targets used in these experiments were a 115-mer (SK-38/SK-39 HIV system) and a 500-mer. The 500-mer target is obtained from a PCR amplification of a lambda plasmid with primers PCR 01/02. This system is provided by Cetus/Perkin Elmer as a control in their commercial kits of PCR reagents (Catalogue No. N801-0055). For both of these systems equivalent copy numbers of each target were prepared in the following manner: An initial 30 cycle PCR reaction was carried out for each system with the appropriate primers and targets. Aliquots (approximately 10^5-10^6 target copies) of each of these reactions were transferred to a second set of PCR reactions. […]

500-mer = assay: as above; assay type: biochemical, lambda; settings: CE-III 15 minutes, 500-mer PCR product, 30 cycles
Description: The two PCR targets used in these experiments were a 115-mer (SK-38/SK-39 HIV system) and a 500-mer. The 500-mer target is obtained from a PCR amplification of a lambda plasmid with primers PCR 01/02. This system is provided by Cetus/Perkin Elmer as a control in their commercial kits of PCR reagents (Catalogue No. N801-0055). For both of these systems equivalent copy numbers of each target were prepared in the following manner: An initial 30 cycle PCR reaction was carried out for each system with the appropriate primers and targets. Aliquots (approximately 10^5-10^6 target copies) of each of these reactions were transferred to a second set of PCR reactions. These second sets of PCR amplifications were carried out in the presence of α-^32P-dCTP, again for 30 cycles. Aliquots of these reactions were removed and counted by liquid scintillation counting. With these numbers, the specific activity of the α-32P-dCTP, and the sequence of each of the PCR product oligonucleotides (115-mer and 500-mer), the concentrations of each of the two PCR product oligonucleotides in the second set of PCR reaction tubes was determined. Both the 115-mer and the 500-mer concentrations were then adjusted to exactly 1 x 10^-8 M by the addition of additional Taq buffer. These stocks of equivalent copy number of PCR products were then used for further investigation. Each of the stock solutions then was subdivided into four reaction tubes. The reaction tubes were adjusted to contain the following: Tube 1, 100 µg/ml AMIP; Tube 2, 400 µg/ml AMIP; Tube 3, 100 µg/ml AMDMIP; and Tube 4, 400 µg/ml AMDMIP. Each of these samples were again split into two portions, one part being irradiated for 15 minutes at room temperature with the CE-III device and the other part kept in the dark. Serial dilutions of the irradiated and the unirradiated targets were then carried out on these samples for 30 cycles in the presence of α-32P-CTP. Aliquots of these samples were analyzed on denaturing polyacrylamide gels. The PCR product bands were visualized by autoradiography, cut, and counted in a liquid scintillation counter.

[1] = 100 µg/ml, CE-III 15 minutes, 30 cycles
[2] = 400 µg/ml, CE-III 15 minutes, 30 cycles

Substance	sterilization of 115-mer PCR product compared with AMIP (HIV 115-mer; [1])	sterilization sensitivity (molecules of carryover sterilized) (HIV 115-mer; [2])	sterilization of carryover (HIV 115-mer; AMDMIP 100 µg/ml added after amplification, PTI 15 minutes, 10^6 copies, thirty cycles)	sterilization of carryover (HIV 115-mer; AMDMIP 100 µg/ml added after amplification, PTI 15 minutes, 10^6 copies, twenty cycles)	sterilization of carryover (HIV 115-mer; AMDMIP 100 µg/ml added after amplification, PTI 15 minutes, 10^6 copies, twenty-five cycles, reduced relative to controls)	amplification of carryover, not light-treated (HIV 115-mer; AMDMIP 100 µg/ml, 20, 25, 30 cycles)	sterilization of carryover (HIV 115-mer; AMDMIP 400 µg/ml present during amplification, CE-III 15 minutes at 25°C, 10^7, 10^5, 10^3 copies, 30 cycles)	amplification of carryover, not light-treated (HIV 115-mer; AMDMIP 400 µg/ml present during first amplification, 30 cycles)	target molecules left capable of being replicated by PCR (HIV 115-mer; inferred from 20 cycles with 100 CPM threshold and Table 6)	target molecules that retained replicating capabilities (HIV 115-mer; inferred from 25 cycles and Table 6)	sterilization sensitivity (molecules of carryover sterilized) (500-mer; 100 µg/ml)	sterilization sensitivity (molecules of carryover sterilized) (500-mer; 400 µg/ml)	sterilization sensitivity (molecules of carryover sterilized) (HIV 115-mer; [1])
4'-Aminomethyl-4,5'-dimethylisopsoralen [AMDMIP]	better sterilization agent	≥ 6 x 10^9 carryover molecules	no significant sterilization is observed	sterilization appears to be complete	PCR product is visible	show amplification	complete, post-amplification sterilization	show amplification	less than 10^4 target molecules	at least 10^3 target molecules	≥ 6 x 10^9 carryover molecules	no signal in the irradiated dilution series	
5-Aminomethylisopsoralen [AMIP]		about 10^6 carryover molecules									more effectively sterilized than the 115-mer PCR product	≥ 6 x 10^9 molecules of carryover	about 10,000 molecules of carryover
